Source: PubChem BioAssay (NCI)
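The concentration for 50% growth inhibition is given as GI50. TGI marks complete inhibition of growth.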

Key:
Experiment in all cases: NCI anticancer screen, dose series, 384-well format
786-0 renal = tested on: 786-0 renal
A498 renal = tested on: A498 renal
A549 NSCLC = tested on: A549 NSCLC
ACHN renal = tested on: ACHN renal
BT-549 breast = tested on: BT-549 breast
CAKI-1 renal = tested on: CAKI-1 renal
CCRF-CEM leukemia = tested on: CCRF-CEM leukemia
COLO 205 colon = tested on: COLO 205 colon
DU-145 prostate = tested on: DU-145 prostate
EKVX NSCLC = tested on: EKVX NSCLC
HCC-2998 colon = tested on: HCC-2998 colon
HCT-15 colon = tested on: HCT-15 colon
HL-60(TB) leukemia = tested on: HL-60(TB) leukemia
HOP-62 NSCLC = tested on: HOP-62 NSCLC
HOP-92 NSCLC = tested on: HOP-92 NSCLC
HS 578T breast = tested on: HS 578T breast
HT29 colon = tested on: HT29 colon
IGROV1 ovarian = tested on: IGROV1 ovarian
K-562 leukemia = tested on: K-562 leukemia
KM12 colon = tested on: KM12 colon
LOX IMVI melanoma = tested on: LOX IMVI melanoma
M14 melanoma = tested on: M14 melanoma
MALME-3M melanoma = tested on: MALME-3M melanoma
MCF7 breast = tested on: MCF7 breast
MDA-MB-231 breast = tested on: MDA-MB-231 breast
MDA-MB-435 melanoma = tested on: MDA-MB-435 melanoma
MDA-MB-468 breast = tested on: MDA-MB-468 breast
MOLT-4 leukemia = tested on: MOLT-4 leukemia
NCI-H226 lung = tested on: NCI-H226 lung
NCI-H23 lung = tested on: NCI-H23 lung
NCI-H322M lung = tested on: NCI-H322M lung
NCI-H460 NSCLC = tested on: NCI-H460 NSCLC
NCI-H522 lung = tested on: NCI-H522 lung
NCI/ADR-RES ovarian = tested on: NCI/ADR-RES ovarian
OVCAR-3 ovarian = tested on: OVCAR-3 ovarian
OVCAR-4 ovarian = tested on: OVCAR-4 ovarian
OVCAR-5 ovarian = tested on: OVCAR-5 ovarian
OVCAR-8 ovarian = tested on: OVCAR-8 ovarian
PC-3 prostate = tested on: PC-3 prostate
RPMI-8226 leukemia = tested on: RPMI-8226 leukemia
RXF 393 renal = tested on: RXF 393 renal
SF-268 CNS = tested on: SF-268 CNS
SF-295 CNS = tested on: SF-295 CNS
SF-539 CNS = tested on: SF-539 CNS
SK-MEL-28 melanoma = tested on: SK-MEL-28 melanoma
SK-MEL-5 melanoma = tested on: SK-MEL-5 melanoma
SK-OV-3 ovarian = tested on: SK-OV-3 ovarian
SN12C renal = tested on: SN12C renal
SNB-19 CNS = tested on: SNB-19 CNS
SNB-75 CNS = tested on: SNB-75 CNS
SR leukemia = tested on: SR leukemia
SW-620 colon = tested on: SW-620 colon
T-47D breast = tested on: T-47D breast
TK-10 renal = tested on: TK-10 renal
UACC-257 melanoma = tested on: UACC-257 melanoma
UACC-62 melanoma = tested on: UACC-62 melanoma
UO-31 renal = tested on: UO-31 renal

`CCc1cc2ncc(CN3CCN(c4ccc(C(=O)NC)nc4)CC3)cc2[nH]c1=O` showed a GI50 ([…]-0 renal) of 72.2 µM, a TGI (786-0 renal) greater than 100 µM and a GI50 (A498 renal) greater than 100 µM. For the same compound, the TGI (A498 renal) was greater than 100 µM, the GI50 (A549 NSCLC) was 52.6 µM and the TGI (A549 NSCLC) was greater than 100 µM. The GI50 (ACHN renal) was 70.5 µM, the TGI (ACHN renal) was greater than 100 µM and the GI50 (BT-549 breast) was 29.7 µM. For the same compound, the TGI (BT-549 breast) was greater than 100 µM, the GI50 (CAKI-1 renal) was 34.5 µM and the TGI (CAKI-1 renal) was greater than 100 µM. It also gave a GI50 (CCRF-CEM leukemia) of 29.5 µM, a TGI (CCRF-CEM leukemia) greater than 100 µM and a GI50 (COLO 205 colon) of 68.5 µM. The TGI (COLO 205 colon) was greater than 100 µM, the GI50 (DU-145 prostate) was greater than 100 µM and the TGI (DU-145 prostate) was greater than 100 µM. It also gave a GI50 (EKVX NSCLC) of 78.6 µM, a TGI (EKVX NSCLC) greater than 100 µM and a GI50 (HCC-2998 colon) of 20.2 µM. It also gave a TGI (HCC-2998 colon) greater than 100 µM, a GI50 (HCT-15 colon) of 50 µM and a TGI (HCT-15 colon) greater than 100 µM. For the same compound, the GI50 (HL-60(TB) leukemia) was 36 µM, the TGI (HL-60(TB) leukemia) was greater than 100 µM and the GI50 (HOP-62 NSCLC) was 26.1 µM. The TGI (HOP-62 NSCLC) was greater than 100 µM, the GI50 (HOP-92 NSCLC) was 25.9 µM and the TGI (HOP-92 NSCLC) was greater than 100 µM. For the same compound, the GI50 (HS 578T breast) was 18.9 µM, the TGI (HS 578T breast) was greater than 100 µM and the GI50 (HT29 colon) was 80.1 µM. For the same compound, the TGI (HT29 colon) was greater than 100 µM, the GI50 (IGROV1 ovarian) was 60.1 µM and the TGI (IGROV1 ovarian) was greater than 100 µM. For the same compound, the GI50 (K-562 leukemia) was 74.6 µM, the TGI (K-562 leukemia) was greater than 100 µM and the GI50 (KM12 colon) was greater than 100 µM. It also gave a TGI (KM12 colon) greater than 100 µM, a GI50 (LOX IMVI melanoma) of 23.9 µM and a TGI (LOX IMVI melanoma) greater than 100 µM. The GI50 (M14 melanoma) was greater than 100 µM, the TGI (M14 melanoma) was greater than 100 µM and the GI50 (MALME-3M melanoma) was 71.2 µM. The TGI (MALME-3M melanoma) was greater than 100 µM, the GI50 (MCF7 breast) was 23.6 µM and the TGI (MCF7 breast) was greater than 100 µM. For the same compound, the GI50 (MDA-MB-231 breast) was 30.5 µM, the TGI (MDA-MB-231 breast) was greater than 100 µM and the GI50 (MDA-MB-435 melanoma) was greater than 100 µM. It also gave a TGI (MDA-MB-435 melanoma) greater than 100 µM, a GI50 (MDA-MB-468 breast) of 3.1 µM and a TGI (MDA-MB-468 breast) of 20.9 µM. It also gave a GI50 (MOLT-4 leukemia) of 2.3 µM, a TGI (MOLT-4 leukemia) of 26.1 µM and a GI50 (NCI-H226 lung) of 53.1 µM. The TGI (NCI-H226 lung) was greater than 100 µM, the GI50 (NCI-H23 lung) was 87.2 µM and the TGI (NCI-H23 lung) was greater than 100 µM. It also gave a GI50 (NCI-H322M lung) greater than 100 µM, a TGI (NCI-H322M lung) greater than 100 µM and a GI50 (NCI-H460 NSCLC) of 2.5 µM. For the same compound, the TGI (NCI-H460 NSCLC) was greater than 100 µM, the GI50 (NCI-H522 lung) was 48.4 µM and the TGI (NCI-H522 lung) was greater than 100 µM. It also gave a GI50 (NCI/ADR-RES ovarian) greater than 100 µM, a TGI (NCI/ADR-RES ovarian) greater than 100 µM and a GI50 (OVCAR-3 ovarian) of 43.5 µM. The TGI (OVCAR-3 ovarian) was greater than 100 µM, the GI50 (OVCAR-4 ovarian) was 53.9 µM and the TGI (OVCAR-4 ovarian) was greater than 100 µM. It also gave a GI50 (OVCAR-5 ovarian) greater than 100 µM, a TGI (OVCAR-5 ovarian) greater than 100 µM and a GI50 (OVCAR-8 ovarian) of 42.1 µM. It also gave a TGI (OVCAR-8 ovarian) greater than 100 µM, a GI50 (PC-3 prostate) greater than 100 µM and a TGI (PC-3 prostate) greater than 100 µM. The GI50 (RPMI-8226 leukemia) was 3.3 µM, the TGI (RPMI-8226 leukemia) was 52.4 µM and the GI50 (RXF 393 renal) was greater than 100 µM. The TGI (RXF 393 renal) was greater than 100 µM, the GI50 (SF-268 CNS) was 93.1 µM and the TGI (SF-268 CNS) was greater than 100 µM. The GI50 (SF-295 CNS) was 71 µM, the TGI (SF-295 CNS) was greater than 100 µM and the GI50 (SF-539 CNS) was greater than 100 µM. It also gave a TGI (SF-539 CNS) greater than 100 µM, a GI50 (SK-MEL-28 melanoma) greater than 100 µM and a TGI (SK-MEL-28 melanoma) greater than 100 µM. The GI50 (SK-MEL-5 melanoma) was greater than 100 µM, the TGI (SK-MEL-5 melanoma) was greater than 100 µM and the GI50 (SK-OV-3 ovarian) was greater than 100 µM. It also gave a TGI (SK-OV-3 ovarian) greater than 100 µM, a GI50 (SN12C renal) of 84 µM and a TGI (SN12C renal) greater than 100 µM. It also gave a GI50 (SNB-19 CNS) greater than 100 µM, a TGI (SNB-19 CNS) greater than 100 µM and a GI50 (SNB-75 CNS) greater than 100 µM. The TGI (SNB-75 CNS) was greater than 100 µM, the GI50 (SR leukemia) was 0.271 µM and the TGI (SR leukemia) was 20.5 µM. For the same compound, the GI50 (SW-620 colon) was greater than 100 µM, the TGI (SW-620 colon) was greater than 100 µM and the GI50 (T-47D breast) was 22 µM. For the same compound, the TGI (T-47D breast) was greater than 100 µM, the GI50 (TK-10 renal) was greater than 100 µM and the TGI (TK-10 renal) was greater than 100 µM. The GI50 (UACC-257 melanoma) was greater than 100 µM, the TGI (UACC-257 melanoma) was greater than 100 µM and the GI50 (UACC-62 melanoma) was greater than 100 µM. The TGI (UACC-62 melanoma) was greater than 100 µM, the GI50 (UO-31 renal) was greater than 100 µM and the TGI (UO-31 renal) was greater than 100 µM.
